From patent publication US12024543B2, “Micropeptides and use of same for modulating gene expression” (UNIVERSITE PAUL SABATIER TOULOUSE III, priority 2013, dated 2024)

Tests used:
[1] = test system: HsmiR155; test: HeLa cells transfected to overexpress HsmiPEP155, relative expression of Pre-miR155; format: cell-based, Homo sapiens; details: HeLa cells overexpressing HsmiPEP155
Excerpt: The DNA fragments of interest (HsmiPEP155 and the mutated miPEP) were synthesized or amplified by PCR using specific primers, and then cloned using the enzymes XhoI and NotI into a pUAS plasmid permitting their overexpression by means of the GAL4 transcription factor, the expression of which is controlled by a constitutive strong promoter.
The different constructs were produced either by PCR amplification on genomic DNA of HeLa cells, or by RT-PCR on total RNAs of L428 human cells. The amplified PCR fragments are digested with the HindIII/EcoRI restriction enzymes and then cloned into the vector pcDNA3.1. The DH5a strain of Escherichia coli is electroporated and then cultured on a solid medium (2YT+agar+ampicillin). The plasmid DNA from different clones is then prepared and sequenced for verification. The constructs are then prepared using the QIAfilter Plasmid Midi kit (QIAGEN) and stored at −20° C.
The HeLa cells (established tumour line, ATCC CCL-2.2) are cultured in a 6-well plate in complete medium [(DMEM (1×)+Glutamax+4.5 g/L glucose without pyruvate+1× penicillin/streptomycin+1 mM Na-pyruvate+10% calf serum] and placed in an incubator at 37° C. and 5% CO2.
The cells are transfected when they are at 50% confluence. […]
10-15 μg of total RNAs is then analysed by Northern blot on 15% acrylamide gel [solution of acrylamide/40% bis-acrylamide, ratio 19:1], 7M urea in TBE 1×. […]

[2] = test system: Arabidopsis thaliana; test: Growth of Arabidopsis thaliana plants watered with synthetic miPEP; format: in vivo; details: A. thaliana; watered with 0.1 μM synthetic peptide, 3 weeks of growth, vs water
Description: The photographs show two plants (top views and side views) after 3 weeks of growth: a control plant watered with water (A), and a plant watered with a composition of 0.1 μM of synthetic peptide corresponding to AtmiPEP164a (B).
The photographs show two plants (top views and side views) after 3 weeks of growth: a control plant watered with water (A), and a plant watered with a composition of 0.1 μM of synthetic peptide corresponding to AtmiPEP319a1 (B).

[3] = test system: AtmiR319a; test: Overexpression of AtmiPEP319a1 in A. thaliana, qRT-PCR of AtmiR319a; format: in vivo, Arabidopsis thaliana; details: overexpression of AtmiPEP319a1 vs control plant
[4] = test system: AtmiR165a; test: Expression of AtmiPEP165a (AtmiORF165a) in tobacco expressing AtmiR165a; format: in vivo, Nicotiana benthamiana; details: overexpression of AtmiORF165a
Description: At present, AtmiPEP165a and AtmiPEP319a2, identified in Arabidopsis thaliana, have already been characterized.
The total RNA was extracted from roots of M. truncatula or from tobacco leaves using the extraction kit RNeasy Plant Mini Kit (Qiagen). The reverse transcription was performed using the reverse transcriptase SuperScript II (Invitrogen) starting from 500 ng of total RNA. Three repetitions (n=3) were carried out, each with two technical repetitions. Each experiment was repeated from two to three times. The amplifications by qPCR were carried out using a LightCycler 480 System thermocycler (Roche Diagnostics) by the method described in Lauressergues et al. (Plant J., 72(3): 512-22, 2012).
For the miPEPs 165a and 319a, the corresponding miORFs were cloned into pBIN19 by the method described in Combier et al. (Genes & Dev, 22: 1549-1559, 2008).
The composite plants having roots transformed with Agrobacterium rhizogenes were obtained by the method described in Boisson-Dernier et al. (Mol Plant-Microbe Interact, 18: 1269-1276, 2005). The transformed roots were verified and selected by observations of DsRED with a binocular fluorescence magnifier. The control roots correspond to roots transformed with A. rhizogenes not containing the pPEX-DsRED vector. Transformation of the tobacco leaves was carried out by the method described in Combier et al. (Genes & Dev, 22: 1549-1559, 2008).

[5] = test system: Arabidopsis thaliana; test: Root growth of Arabidopsis thaliana treated with AtmiPEP165a; format: in vivo; details: Arabidopsis thaliana treated with AtmiPEP165a vs control plant of the same age
[6] = test system: AtmiR165a; test: Northern blot of miR165a in A. thaliana roots treated with synthetic AtmiPEP165a; format: in vivo, Arabidopsis thaliana; details: 0.1 μM synthetic miPEP165a in water vs water
[7] = test system: AtmiR165a; test: Relative expression of AtmiR165a and its target genes in A. thaliana roots treated with AtmiPEP165a; format: in vivo, Arabidopsis thaliana; details: AtmiPEP165a 0.01, 0.1, 1 or 10 μM vs water

MEMALMVAQTRKGKSVV (listed as Homo sapiens) [HsmiPEP155]
expression of HsmiR155 (relative expression of Pre-miR155) [1]: increases

MNIHTYHHLLFPSLVFHQSSDVPNALSLHIHTYEYIIVVIDPFRITLAFR (listed as Arabidopsis thaliana) [AtmiPEP319a1]
plant growth [2]: increases plant growth significantly
accumulation of AtmiR319a [3]: increase

MRVKLFQLRGMLSGSRIL (listed as Arabidopsis thaliana) [AtmiPEP165a]
accumulation of AtmiR165a [4]: increase
root growth phenotype [5]: greatly accelerated root growth
accumulation of miR165a (Northern blot) [6]: increase
accumulation of AtmiR165a [7]: dose-dependent effect
regulation of the target genes of miR165a (PHV, PHB and REV) [7]: negative regulation
